Assay results published in PubChem BioAssay (NCI).
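GI50 is the concentration that inhibits growth by half. TGI: concentration producing complete growth inhibition.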

Tests used:
Test in all cases: inhibition of tumour cell growth, NCI panel, 384-well format
[1] = tested on: HOP-62 NSCLC
[2] = tested on: EKVX NSCLC
[3] = tested on: SN12C renal
[4] = tested on: T-47D breast
[5] = tested on: IGROV1 ovarian
[6] = tested on: OVCAR-3 ovarian
[7] = tested on: SF-539 CNS
[8] = tested on: OVCAR-8 ovarian
[9] = tested on: NCI-H460 NSCLC
[10] = tested on: SF-268 CNS
[11] = tested on: TK-10 renal
[12] = tested on: MOLT-4 leukemia
[13] = tested on: SW-620 colon
[14] = tested on: A549 NSCLC
[15] = tested on: ACHN renal
[16] = tested on: SNB-75 CNS
[17] = tested on: LOX IMVI melanoma
[18] = tested on: HCC-2998 colon
[19] = tested on: UO-31 renal
[20] = tested on: OVCAR-5 ovarian
[21] = tested on: NCI-H226 lung
[22] = tested on: NCI/ADR-RES ovarian
[23] = tested on: HS 578T breast
[24] = tested on: SK-MEL-5 melanoma
[25] = tested on: PC-3 prostate
[26] = tested on: K-562 leukemia
[27] = tested on: MDA-MB-435 melanoma
[28] = tested on: UACC-257 melanoma
[29] = tested on: COLO 205 colon
[30] = tested on: SNB-19 CNS
[31] = tested on: A498 renal
[32] = tested on: MALME-3M melanoma
[33] = tested on: U251 glioblastoma
[34] = tested on: MCF7 breast
[35] = tested on: RPMI-8226 leukemia
[36] = tested on: 786-0 renal
[37] = tested on: HOP-92 NSCLC
[38] = tested on: CAKI-1 renal
[39] = tested on: MDA-MB-231 breast
[40] = tested on: M14 melanoma
[41] = tested on: SK-OV-3 ovarian
[42] = tested on: BT-549 breast
[43] = tested on: SF-295 CNS
[44] = tested on: HCT-116 colon
[45] = tested on: SR leukemia
[46] = tested on: HL-60(TB) leukemia
[47] = tested on: NCI-H23 lung
[48] = tested on: CCRF-CEM leukemia
[49] = tested on: DU-145 prostate
[50] = tested on: MDA-MB-468 breast
[51] = tested on: NCI-H522 lung
[52] = tested on: SK-MEL-28 melanoma
[53] = tested on: KM12 colon
[54] = tested on: HT29 colon
[55] = tested on: OVCAR-4 ovarian
[56] = tested on: RXF 393 renal
[57] = tested on: NCI-H322M lung
[58] = tested on: HCT-15 colon

COc1c/c(=C2/C=c3ccccc3=N2)[nH]/c1=C/c1[nH]c(C)cc1C
GI50 [1]: 24.1 nM
TGI [1]: 77.3 nM
GI50 [2]: 24.5 nM
TGI [2]: 81.2 nM
GI50 [3]: 40.6 nM
TGI [3]: 178 nM
GI50 [4]: 50.2 nM
TGI [4]: 194 nM
GI50 [5]: 30.9 nM
TGI [5]: 99.1 nM
GI50 [6]: 14.3 nM
TGI [6]: 34.6 nM
GI50 [7]: 31.6 nM
TGI [7]: 83.2 nM
GI50 [8]: 19.6 nM
TGI [8]: 43.1 nM
GI50 [9]: 19.5 nM
TGI [9]: 41 nM
GI50 [10]: 19.3 nM
TGI [10]: 88.6 nM
GI50 [11]: 25.2 nM
TGI [11]: 65.5 nM
GI50 [12]: 14.9 nM
TGI [12]: 28.7 nM
GI50 [13]: 22.2 nM
TGI [13]: 47.2 nM
GI50 [14]: 120 nM
TGI [14]: 385 nM
GI50 [15]: 32.5 nM
TGI [15]: 123 nM
GI50 [16]: 32.8 nM
TGI [16]: 85.2 nM
GI50 [17]: 17.7 nM
TGI [17]: 32.4 nM
GI50 [18]: 17.1 nM
TGI [18]: 69 nM
GI50 [19]: 18.8 nM
TGI [19]: 35.3 nM
GI50 [20]: 33 nM
TGI [20]: 1230 nM
GI50 [21]: 15.3 nM
TGI [21]: 32.3 nM
GI50 [22]: 20.5 nM
TGI [22]: 40.5 nM
GI50 [23]: 26.3 nM
TGI [23]: 77.9 nM
GI50 [24]: 19.4 nM
TGI [24]: 37.3 nM
GI50 [25]: 17.8 nM
TGI [25]: 76.8 nM
GI50 [26]: 62.9 nM
TGI [26]: 244 nM
GI50 [27]: 23.6 nM
TGI [27]: 53.2 nM
GI50 [28]: 24.7 nM
TGI [28]: 53.7 nM
GI50 [29]: 24.6 nM
TGI [29]: 68.9 nM
GI50 [30]: 54.5 nM
TGI [30]: 1290 nM
GI50 [31]: 81 nM
TGI [31]: 1070 nM
GI50 [32]: 27.2 nM
TGI [32]: 64.3 nM
GI50 [33]: 36.5 nM
TGI [33]: 132 nM
GI50 [34]: 32 nM
TGI [34]: 106 nM
GI50 [35]: 19.7 nM
TGI [35]: 39.8 nM
GI50 [36]: 13.8 nM
TGI [36]: 33.8 nM
GI50 [37]: 23.9 nM
TGI [37]: 67.1 nM
GI50 [38]: 45.2 nM
TGI [38]: 269 nM
GI50 [39]: 19.3 nM
TGI [39]: 52.7 nM
GI50 [40]: 22.3 nM
TGI [40]: 52.7 nM
GI50 [41]: 52.3 nM
TGI [41]: 293 nM
GI50 [42]: 15.6 nM
TGI [42]: 58.2 nM
GI50 [43]: 35.1 nM
TGI [43]: 155 nM
GI50 [44]: 17.2 nM
TGI [44]: 33.1 nM
GI50 [45]: 20.7 nM
TGI [45]: 35.3 nM
GI50 [46]: 17.3 nM
TGI [46]: 31.6 nM
GI50 [47]: 24.7 nM
TGI [47]: 63 nM
GI50 [48]: 16.4 nM
TGI [48]: 32.8 nM
GI50 [49]: 33.8 nM
TGI [49]: 1060 nM
GI50 [50]: 197 nM
TGI [50]: 587 nM
GI50 [51]: 33.5 nM
TGI [51]: 220 nM
GI50 [52]: 24.4 nM
TGI [52]: 61.8 nM
GI50 [53]: 27.8 nM
TGI [53]: 99.8 nM
GI50 [54]: 21.9 nM
TGI [54]: 54.8 nM
GI50 [55]: 24.2 nM
TGI [55]: 158 nM
GI50 [56]: 14.2 nM
TGI [56]: 51.6 nM
GI50 [57]: 56.4 nM
TGI [57]: 1140 nM
GI50 [58]: 17.9 nM
TGI [58]: 35.2 nM
